Experimental data from patent US8022225B2, “Triazole derivative” (Taisho Pharmaceutical Co., Ltd, priority 2004, dated 2011).

Key:
human Edg-1(S1P1) [1] = target: T1, human Edg-1(S1P1) (Homo sapiens, UniProt P21453); test: Cell system binding test: inhibition of [3H]-S1P binding to Edg-1(S1P1) gene transferred HEK-293 cells; conditions: 10 μM compound, [3H]-S1P 10 nM, read-out: Cell system binding test % inhibition (10 μM)
T1 construct: expressed in transfected cells; host or cells: HEK-293

human Edg-1(S1P1) [2] = target: T1, human Edg-1(S1P1); test: Membrane system binding test: inhibition of [33P]-S1P binding to the membrane fraction of Edg-1(S1P1) gene transferred HEK-293 cells; conditions: 10 μM compound; [33P]-S1P 0.1 nM; membrane fraction of Edg-1(S1P1) gene transferred HEK-293 cells; read-out: Membrane system binding test % inhibition (10 μM)
Method in brief: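 Compound tested at 10^−5 M final (0.1% DMSO) for blocking 0.1 nM [^33P]-S1P binding to S1P1-expressing HEK-293 membranes, 30 °C, 1 h. Radioactivity retained on filters was counted, and percent inhibition derived relative to vehicle binding, correcting for the background of non-transfected HEK-293 membranes.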

T1 sequence (P21453 whole entry): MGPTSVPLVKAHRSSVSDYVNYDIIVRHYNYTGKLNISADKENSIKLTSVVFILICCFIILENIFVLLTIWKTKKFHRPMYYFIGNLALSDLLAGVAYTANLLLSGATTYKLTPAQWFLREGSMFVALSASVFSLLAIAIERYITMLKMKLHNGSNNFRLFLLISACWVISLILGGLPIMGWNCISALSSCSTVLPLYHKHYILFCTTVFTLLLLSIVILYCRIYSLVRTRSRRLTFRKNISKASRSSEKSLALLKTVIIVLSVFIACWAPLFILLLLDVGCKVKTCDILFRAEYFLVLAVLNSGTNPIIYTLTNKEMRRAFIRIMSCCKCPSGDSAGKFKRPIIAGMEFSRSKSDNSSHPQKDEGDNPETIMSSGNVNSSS

CCn1c(SC)nnc1[C@@H](C)NS(=O)(=O)c1ccc(Cl)cc1 [Compound 1, 4-chloro-N-{(1R)-1-[4-ethyl-5-(methylthio)-4H-1,2,4-triazol-3-yl]ethyl}benzenesulfonamide]
melting point: 176 to 177 °C
inhibition at 10 µM (human Edg-1(S1P1) [1]): 89.8%
inhibition at 10 µM (human Edg-1(S1P1) [2]): 72.3%

C=CCSc1nnc(C(CCC)NS(=O)(=O)c2ccc(Cl)cc2)n1C (stereo not drawn) [Compound 125, N-{1-[(5-allylthio)-4-methyl-4H-1,2,4-triazol-3-yl]butyl}-4-chlorobenzenesulfonamide]
melting point: 161.5 to 162 °C
inhibition at 10 µM (human Edg-1(S1P1) [1]): 69%
inhibition at 10 µM (human Edg-1(S1P1) [2]): 52.4%

CCCOc1nnc([C@@H](C)NS(=O)(=O)c2ccc(Cl)cc2)n1CC [Compound 183, 4-Chloro-N-[(1R)-1-(4-ethyl-5-propoxy-4H-1,2,4-triazol-3-yl)ethyl]benzenesulfonamide]
melting point: 150.5 to 151.5 °C
inhibition at 10 µM (human Edg-1(S1P1) [1]): 89.2%
inhibition at 10 µM (human Edg-1(S1P1) [2]): 97.7%
